From ChEMBL document CHEMBL1138938, “Design, synthesis, and SAR studies on a series of 2-pyridinylpiperazines as potent antagonists of the melanocortin-4 receptor” (Bioorg Med Chem Lett, 2006) come the findings set out here.

Melanocortin receptor 4, sequence (P32245 whole entry): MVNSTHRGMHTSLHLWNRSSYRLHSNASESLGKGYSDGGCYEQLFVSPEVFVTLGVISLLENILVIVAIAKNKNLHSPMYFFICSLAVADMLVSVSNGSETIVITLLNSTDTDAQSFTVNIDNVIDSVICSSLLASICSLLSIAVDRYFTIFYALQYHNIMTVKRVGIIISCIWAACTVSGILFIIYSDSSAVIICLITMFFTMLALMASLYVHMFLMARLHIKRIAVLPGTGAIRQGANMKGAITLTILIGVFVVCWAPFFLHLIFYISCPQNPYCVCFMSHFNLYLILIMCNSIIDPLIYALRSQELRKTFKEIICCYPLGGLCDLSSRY

The first data set concerns the target Melanocortin receptor 4 (Homo sapiens, UniProt P32245). Nature of the data set: Displacement of [125I]NDP-MSH from human MC4R expressed in HEK293 cells. It is filed as cell-based.
Conditions: not given
Turning to `COc1ccccc1CCNCc1ccccc1N1CCN(C(=O)[C@@H](Cc2ccc(Cl)cc2Cl)NC(=O)CCN)CC1`, the Ki worked out at 0.0016 µM.

Take `CC(C)NC(=O)NCc1cccnc1N1CCN(C(=O)[C@@H](Cc2ccc(Cl)cc2Cl)NC(=O)CCN)CC1`: affinity was put at a Ki of 1.3 µM.

In the case of `CCC(CO)NCc1cccnc1N1CCN(C(=O)[C@@H](Cc2ccc(Cl)cc2Cl)NC(=O)CCN)CC1` (stereo not given in full), the affinity, expressed as Ki, was 0.71 µM.

The compound `NCCC(=O)N[C@H](Cc1ccc(Cl)cc1Cl)C(=O)N1CCN(c2ncccc2CNCCO)CC1` yielded an inhibition constant Ki of 0.52 µM.

On to `NCCC(=O)N[C@H](Cc1ccc(Cl)cc1Cl)C(=O)N1CCN(c2ncccc2CNC(=O)c2ccco2)CC1`, for which the Ki is 2.6 µM.

The compound `NCCC(=O)N[C@H](Cc1ccc(Cl)cc1Cl)C(=O)N1CCN(c2ncccc2CNC(=O)NCc2cccs2)CC1` gave an inhibition constant Ki of 0.75 µM.

The compound `COCC(C)NCc1ccccc1N1CCN(C(=O)[C@@H](Cc2ccc(Cl)cc2Cl)NC(=O)CCN)CC1` (stereo not given in full) came in with an inhibition constant (Ki) of 0.0088 µM.

Consider `NCCC(=O)N[C@H](Cc1ccc(Cl)cc1Cl)C(=O)N1CCN(c2ncccc2CNC(=O)c2ccc(F)cc2)CC1`, for which the inhibition constant (Ki) worked out at 2.2 µM.

Take `CC(CO)NCc1cccnc1N1CCN(C(=O)[C@@H](Cc2ccc(Cl)cc2Cl)NC(=O)CCN)CC1C` (stereo not given in full): affinity was put at a Ki of 0.42 µM.

The compound `CC(=O)NCc1cccnc1N1CCN(C(=O)[C@@H](Cc2ccc(Cl)cc2Cl)NC(=O)CCN)CC1` gave a Ki of 2.8 µM.

Consider `COc1ccccc1CC(=O)NCc1cccnc1N1CCN(C(=O)[C@@H](Cc2ccc(Cl)cc2Cl)NC(=O)CCN)CC1`, for which the Ki is 0.36 µM.

Compound `NCCC(=O)N[C@H](Cc1ccc(Cl)cc1Cl)C(=O)N1CCN(c2ncccc2CNC(=O)Cc2ccc(F)cc2)CC1` registered a Ki of 1 µM.

For `NCCC(=O)N[C@H](Cc1ccc(Cl)cc1Cl)C(=O)N1CCN(c2ncccc2CNC(=O)Nc2ccccc2F)CC1`, the affinity corresponds to a Ki of 1.1 µM.

As for `NCCC(=O)N[C@H](Cc1ccc(Cl)cc1Cl)C(=O)N1CCN(c2ncccc2CNC(=O)NCc2ccccc2F)CC1`, the inhibitory constant (Ki) was 1 µM.

Compound `NCCC(=O)N[C@H](Cc1ccc(Cl)cc1Cl)C(=O)N1CCN(c2ncccc2CNC(=O)Oc2ccccc2)CC1` returned a Ki of 1.2 µM.

Compound `NCCC(=O)N[C@H](Cc1ccc(Cl)cc1Cl)C(=O)N1CCN(c2ncccc2CNC(=O)OCc2ccccc2)CC1` displayed a Ki of 0.44 µM.

In turn, `COc1ccccc1CCNCc1cccnc1N1CCN(C(=O)[C@@H](Cc2ccc(Cl)cc2Cl)NC(C)=O)CC1` showed a Ki of 0.01 µM.

`COCC(C)NCc1cccnc1N1CCN(C(=O)[C@@H](Cc2ccc(Cl)cc2Cl)NC(C)=O)CC1` (stereo not given in full) had a Ki of 0.18 µM.

The compound `NCCC(=O)N[C@H](Cc1ccc(Cl)cc1Cl)C(=O)N1CCN(c2ncccc2CNC(=O)Nc2ccccc2)CC1` gave a Ki of 0.71 µM.

`NCCC(=O)N[C@H](Cc1ccc(Cl)cc1Cl)C(=O)N1CCN(c2ncccc2CNCC(F)(F)F)CC1` returned an inhibition constant Ki of 0.17 µM.

In the case of `COc1ccc(CC(=O)NCc2cccnc2N2CCN(C(=O)[C@@H](Cc3ccc(Cl)cc3Cl)NC(=O)CCN)CC2)cc1`, the affinity, expressed as Ki, was 0.55 µM.

`COc1ccccc1NC(=O)NCc1cccnc1N1CCN(C(=O)[C@@H](Cc2ccc(Cl)cc2Cl)NC(=O)CCN)CC1` came in with a Ki of 1.3 µM.

`CC(C)(CO)NCc1cccnc1N1CCN(C(=O)[C@@H](Cc2ccc(Cl)cc2Cl)NC(=O)CCN)CC1` displayed a Ki of 0.48 µM.

Take `CCC(COC)NCc1cccnc1N1CCN(C(=O)[C@@H](Cc2ccc(Cl)cc2Cl)NC(=O)CCN)CC1` (stereo not given in full): the inhibitory constant (Ki) turned out to be 0.2 µM.

The compound `COc1ccccc1CNC(=O)NCc1cccnc1N1CCN(C(=O)[C@@H](Cc2ccc(Cl)cc2Cl)NC(=O)CCN)CC1` had an inhibition constant Ki of 0.56 µM.

For the compound `COc1ccc(C(=O)NCc2cccnc2N2CCN(C(=O)[C@@H](Cc3ccc(Cl)cc3Cl)NC(=O)CCN)CC2)cc1`, the inhibitory constant (Ki) was 1.5 µM.

In the case of `NCCC(=O)N[C@H](Cc1ccc(Cl)cc1Cl)C(=O)N1CCN(c2ncccc2CNC(=O)Cc2ccccc2F)CC1`, the inhibition constant (Ki) was 0.45 µM.

`COc1ccccc1CCNCc1cccnc1N1CCN(C(=O)[C@@H](Cc2ccc(Cl)cc2Cl)NC(=O)CCN)CC1` came in with a Ki of 0.0067 µM.

In turn, `COCC(=O)NCc1cccnc1N1CCN(C(=O)[C@@H](Cc2ccc(Cl)cc2Cl)NC(=O)CCN)CC1` gave an inhibitory constant (Ki) of 2.8 µM.

Turning to `COc1ccccc1OC(=O)NCc1cccnc1N1CCN(C(=O)[C@@H](Cc2ccc(Cl)cc2Cl)NC(=O)CCN)CC1`, the Ki came out at 1.8 µM.

As to `NCCC(=O)N[C@H](Cc1ccc(Cl)cc1Cl)C(=O)N1CCN(c2ncccc2CNCCc2ccccc2F)CC1`, the Ki was found to be 0.012 µM.

For `NCCC(=O)N[C@H](Cc1ccc(Cl)cc1Cl)C(=O)N1CCN(c2ncccc2CNC(=O)c2cccs2)CC1`, the Ki turned out to be 1.8 µM.

`NCCC(=O)N[C@H](Cc1ccc(Cl)cc1Cl)C(=O)N1CCN(c2ncccc2CNCc2ccccc2F)CC1` came in with a Ki of 0.13 µM.

On to `COCC(C)NCc1cccnc1N1CCN(C(=O)[C@@H](Cc2ccc(Cl)cc2Cl)NC(=O)CCN)CC1` (stereo not given in full), for which the Ki came to 0.087 µM.

The compound `CC(=O)N[C@H](Cc1ccc(Cl)cc1Cl)C(=O)N1CCN(c2ncccc2CNCCc2cccs2)CC1` returned a Ki of 0.021 µM.

With `NCCC(=O)N[C@H](Cc1ccc(Cl)cc1Cl)C(=O)N1CCN(c2ncccc2CNC(CO)CO)CC1`, the affinity corresponds to a Ki of 1.5 µM.

`NCCC(=O)N[C@H](Cc1ccc(Cl)cc1Cl)C(=O)N1CCN(c2ncccc2CNCCc2cccs2)CC1` yielded a Ki of 0.015 µM.

For the compound `NCCC(=O)N[C@H](Cc1ccc(Cl)cc1Cl)C(=O)N1CCN(c2ncccc2CNC(=O)c2ccccc2)CC1`, the Ki is 1.8 µM.

In turn, `NCCC(=O)N[C@H](Cc1ccc(Cl)cc1Cl)C(=O)N1CCN(c2ncccc2CNC(=O)Cc2cccs2)CC1` gave a Ki of 0.31 µM.

In a further data set the target is Melanocortin receptor 3 (Homo sapiens, UniProt P41968). Nature of the data set: Displacement of [125I]NDP-MSH from human MC3R expressed in HEK293 cells.
Melanocortin receptor 3, sequence (P41968 whole entry): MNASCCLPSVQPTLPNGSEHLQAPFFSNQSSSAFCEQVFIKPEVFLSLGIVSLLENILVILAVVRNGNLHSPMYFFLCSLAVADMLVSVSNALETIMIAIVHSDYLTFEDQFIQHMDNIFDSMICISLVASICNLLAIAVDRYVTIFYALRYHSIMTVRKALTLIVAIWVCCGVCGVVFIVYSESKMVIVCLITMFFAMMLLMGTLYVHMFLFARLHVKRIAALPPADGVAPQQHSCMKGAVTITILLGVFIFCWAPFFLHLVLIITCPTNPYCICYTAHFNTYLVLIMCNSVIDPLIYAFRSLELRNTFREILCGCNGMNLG
Conditions: not given
It is filed as cell-based.
Take `COc1ccccc1CCNCc1cccnc1N1CCN(C(=O)[C@@H](Cc2ccc(Cl)cc2Cl)NC(=O)CCN)CC1`: the inhibition constant Ki turned out to be 5 µM.

The target of the next data set is Melanocortin receptor 5 (Homo sapiens, UniProt P33032). The experiment in a line: Displacement of [125I]NDP-MSH from human MC5R expressed in HEK293 cells. It is filed as cell-based.
Melanocortin receptor 5, sequence (P33032 whole entry): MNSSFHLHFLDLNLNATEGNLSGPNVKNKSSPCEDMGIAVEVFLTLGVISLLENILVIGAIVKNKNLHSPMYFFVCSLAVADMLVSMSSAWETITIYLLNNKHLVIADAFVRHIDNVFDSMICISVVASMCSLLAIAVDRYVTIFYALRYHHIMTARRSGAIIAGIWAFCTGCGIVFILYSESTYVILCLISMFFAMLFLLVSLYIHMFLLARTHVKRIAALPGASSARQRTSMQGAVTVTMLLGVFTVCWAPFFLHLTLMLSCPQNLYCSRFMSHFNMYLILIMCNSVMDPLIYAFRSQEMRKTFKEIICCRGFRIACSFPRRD
Conditions: not given
With `COc1ccccc1CCNCc1cccnc1N1CCN(C(=O)[C@@H](Cc2ccc(Cl)cc2Cl)NC(=O)CCN)CC1`, the affinity corresponds to a Ki of 2.1 µM.

Test system in a further data set: not listed separately
The experiment in a line: Intrinsic clearance in rat liver microsome. The class given is ADME. The settings on record: liver microsomes.
On to `COc1ccccc1CCNCc1cccnc1N1CCN(C(=O)[C@@H](Cc2ccc(Cl)cc2Cl)NC(C)=O)CC1`, for which the intrinsic metabolic clearance (CLint scaled) is 210 L/h/kg.

Turning to `COc1ccccc1CCNCc1cccnc1N1CCN(C(=O)[C@@H](Cc2ccc(Cl)cc2Cl)NC(=O)CCN)CC1`, the CLint scaled amounted to 23.4 L/h/kg.

Test system in the next data set: not listed separately
The experiment in a line: Oral bioavailability in rat. It is filed as ADME, organism-based. The following applies: in vivo.
For the compound `COc1ccccc1CCNCc1cccnc1N1CCN(C(=O)[C@@H](Cc2ccc(Cl)cc2Cl)NC(C)=O)CC1`, the bioavailability came out at 0%.

Take `COc1ccccc1CCNCc1cccnc1N1CCN(C(=O)[C@@H](Cc2ccc(Cl)cc2Cl)NC(=O)CCN)CC1`: the bioavailability turned out to be 15%.
